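48-hour exposure; five concentrations; linearly interpolated endpoints. TGI denotes the concentration required for complete inhibition of growth.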
Experiments:
Assay in all cases: growth of human tumour cells (NCI), 48 h
786-0 renal = test system: 786-0 renal
A498 renal = test system: A498 renal
A549 NSCLC = test system: A549 NSCLC
ACHN renal = test system: ACHN renal
BT-549 breast = test system: BT-549 breast
CAKI-1 renal = test system: CAKI-1 renal
CCRF-CEM leukemia = test system: CCRF-CEM leukemia
COLO 205 colon = test system: COLO 205 colon
DU-145 prostate = test system: DU-145 prostate
EKVX NSCLC = test system: EKVX NSCLC
HCC-2998 colon = test system: HCC-2998 colon
HCT-116 colon = test system: HCT-116 colon
HCT-15 colon = test system: HCT-15 colon
HL-60(TB) leukemia = test system: HL-60(TB) leukemia
HOP-62 NSCLC = test system: HOP-62 NSCLC
HOP-92 NSCLC = test system: HOP-92 NSCLC
HS 578T breast = test system: HS 578T breast
HT29 colon = test system: HT29 colon
IGROV1 ovarian = test system: IGROV1 ovarian
K-562 leukemia = test system: K-562 leukemia
KM12 colon = test system: KM12 colon
LOX IMVI melanoma = test system: LOX IMVI melanoma
M14 melanoma = test system: M14 melanoma
MALME-3M melanoma = test system: MALME-3M melanoma
MCF7 breast = test system: MCF7 breast
MDA-MB-231 breast = test system: MDA-MB-231 breast
MDA-MB-435 = test system: MDA-MB-435
MDA-N = test system: MDA-N
MOLT-4 leukemia = test system: MOLT-4 leukemia
NCI-H226 lung = test system: NCI-H226 lung
NCI-H23 lung = test system: NCI-H23 lung
NCI-H460 lung = test system: NCI-H460 lung
NCI-H522 lung = test system: NCI-H522 lung
NCI/ADR-RES ovarian = test system: NCI/ADR-RES ovarian
OVCAR-3 ovarian = test system: OVCAR-3 ovarian
OVCAR-4 ovarian = test system: OVCAR-4 ovarian
OVCAR-5 ovarian = test system: OVCAR-5 ovarian
OVCAR-8 ovarian = test system: OVCAR-8 ovarian
PC-3 prostate = test system: PC-3 prostate
RPMI-8226 leukemia = test system: RPMI-8226 leukemia
RXF 393 renal = test system: RXF 393 renal
SF-268 CNS = test system: SF-268 CNS
SF-295 CNS = test system: SF-295 CNS
SF-539 CNS = test system: SF-539 CNS
SK-MEL-2 melanoma = test system: SK-MEL-2 melanoma
SK-MEL-28 melanoma = test system: SK-MEL-28 melanoma
SK-MEL-5 melanoma = test system: SK-MEL-5 melanoma
SK-OV-3 ovarian = test system: SK-OV-3 ovarian
SN12C renal = test system: SN12C renal
SNB-19 CNS = test system: SNB-19 CNS
SNB-75 CNS = test system: SNB-75 CNS
SR leukemia = test system: SR leukemia
SW-620 colon = test system: SW-620 colon
T-47D breast = test system: T-47D breast
TK-10 renal = test system: TK-10 renal
U251 CNS = test system: U251 CNS
UACC-257 melanoma = test system: UACC-257 melanoma
UACC-62 melanoma = test system: UACC-62 melanoma
UO-31 renal = test system: UO-31 renal

Measured: TGI

NC(=O)NN=C1Cc2ccccc2C1
> 100 µM: all assays above
